In patent publication US10316035B2, “Triazolopyridine inhibitors of myeloperoxidase” (BRISTOL-MYERS SQUIBB COMPANY, priority 2015, dated 2019):
Read-outs that look alike come from different tables or passages of the source.

Biological target: T1, myeloperoxidase (MPO) (Homo sapiens, UniProt P05164)
T1 sequence (P05164 49-745): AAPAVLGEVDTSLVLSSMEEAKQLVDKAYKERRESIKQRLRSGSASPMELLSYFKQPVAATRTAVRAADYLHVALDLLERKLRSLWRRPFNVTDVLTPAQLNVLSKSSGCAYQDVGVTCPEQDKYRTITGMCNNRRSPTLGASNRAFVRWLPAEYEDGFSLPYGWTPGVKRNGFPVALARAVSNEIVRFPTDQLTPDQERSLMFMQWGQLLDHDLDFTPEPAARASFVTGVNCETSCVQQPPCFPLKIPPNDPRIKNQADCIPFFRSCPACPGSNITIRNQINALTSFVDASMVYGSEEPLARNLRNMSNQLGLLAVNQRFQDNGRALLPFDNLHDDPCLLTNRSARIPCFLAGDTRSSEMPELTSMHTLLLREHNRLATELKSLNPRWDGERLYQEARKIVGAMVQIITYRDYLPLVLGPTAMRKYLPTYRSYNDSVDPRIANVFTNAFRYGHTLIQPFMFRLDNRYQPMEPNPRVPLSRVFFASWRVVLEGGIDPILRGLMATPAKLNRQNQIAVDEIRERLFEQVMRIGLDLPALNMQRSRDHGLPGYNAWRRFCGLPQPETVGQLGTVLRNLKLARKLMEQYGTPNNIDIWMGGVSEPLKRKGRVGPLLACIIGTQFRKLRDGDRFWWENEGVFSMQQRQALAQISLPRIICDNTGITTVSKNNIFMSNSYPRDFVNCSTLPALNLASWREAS
Assay: MPO peroxidation assay (Amplex Red assay)
Assay type: biochemical
Experimental: MPO Peroxidation Assay (Amplex Red Assay)
MPO peroxidation activity was measured in 100 mM KPi (pH 7.4) by utilizing the non-fluorescent reagent Amplex Red (Invitrogen catalog # A12222) which can be oxidized to the highly fluorescent resorufin. Amplex Red is oxidized by the peroxidase action of MPO to resorufin. Reactions were carried out in 50 μL total volume by adding a 25 μL mixture of 200 pM myeloperoxidase and 40 nM H2O2(Sigma #349887) to 100 nL inhibitor in 100% DMSO in a 384 well Perkin Elmer Optiplate. Enzyme and compound were preincubated for ten minutes at room temperature.
After the ten minute preincubation, 25 μL of an Amplex Red mixture containing 200 μM Amplex Red and 10 mM H2O2 was added to the plate. Kinetic determinations were carried out immediately on a Perkin Elmer Envision (15 minute kinetic read, Ex: 535 nm, Em: 590 nm).
IC50 values were calculated by determining the slope of the linear portion of the kinetic trace ([…]), and using that calculated slope to determine % inhibition occurring at each concentration of inhibitor using the following equation:
[formula] where A=minimal Y value (activity level of inhibited sample), B=maximal Y value (activity level of uninhibited sample), C=Log IC50, D=Hill Slope, x=concentration of inhibitor. MPO Chlorination Assay (APF Assay)

[1] = MPO peroxidation, potency range class, read-out: Amplex Red IC50

Row | SMILES | IC50 [1] [nM] | IC50 [nM]
1 | CCC(F)(F)C(Oc1cc(N)nc2[nH]nnc12)c1ccccc1 (racemic) [Example 135, 7-(2,2-Difluoro-1-phenylbutoxy)-3H-[1,2,3]triazolo[4,5-b]pyridin-5-amine] | 101 to 999 | –
2 | CCC(F)(F)C(Oc1cc(N)nc2[nH]nnc12)c1ccccc1OC (racemic) [Example 136, 7-(2,2-Difluoro-1-(2-methoxyphenyl)butoxy)-3H-[1,2,3]triazolo[4,5-b]pyridin-5-amine] | 101 to 999 | –
3 | Nc1cc(OC(c2ccccc2)C(F)F)c2nn[nH]c2n1 (racemic) [Example 138, 7-(2,2-Difluoro-1-phenylethoxy)-3H-[1,2,3]triazolo[4,5-b]pyridin-5-amine] | 101 to 999 | –
4 | CCC(F)(F)C(Oc1cc(N)nc2[nH]nnc12)c1ccccc1 (single isomer, unassigned) [Example 137, 7-(2,2-Difluoro-1-phenylbutoxy)-3H-[1,2,3]triazolo[4,5-b]pyridin-5-amine] | 1 to 100 | –
5 | Nc1cc(OCc2ccc(OC(F)(F)F)cc2)c2nn[nH]c2n1 [Example 1, 7-(4-(Trifluoromethoxy)benzyloxy)-3H-[1,2,3]triazolo[4,5-b]pyridin-5-amine] | 1 to 100 | –
6 | Nc1cc(OCc2cccc(-n3cncn3)c2)c2nn[nH]c2n1 [Example 3, 7-(3-(1H-1,2,4-Triazol-1-yl)benzyloxy)-3H-[1,2,3]triazolo[4,5-b]pyridin-5-amine] | 1 to 100 | –
7 | Nc1cc(OCc2cccc(S(=O)(=O)N3CCOCC3)c2)c2nn[nH]c2n1 [Example 4, 7-(3-(Morpholinosulfonyl)benzyloxy)-3H-[1,2,3]triazolo[4,5-b]pyridin-5-amine] | 101 to 999 | –
8 | Cn1ccc(-c2cccc(COc3cc(N)nc4[nH]nnc34)c2)n1 [Example 5, 7-(3-(1-Methyl-1H-pyrazol-3-yl)benzyloxy)-3H-[1,2,3]triazolo[4,5-b]pyridin-5-amine] | – | 1 to 100
9 | Cc1nccn1-c1cccc(COc2cc(N)nc3[nH]nnc23)c1 [Example 7, 7-(3-(2-Methyl-1H-imidazol-1-yl)benzyloxy)-3H-[1,2,3]triazolo[4,5-b]pyridin-5-amine] | 101 to 999 | –
10 | Nc1cc(OCc2cccc(Cl)c2)c2nn[nH]c2n1 [Example 10, 7-(3-Chlorobenzyloxy)-3H-[1,2,3]triazolo[4,5-b]pyridin-5-amine] | – | 1 to 100
11 | Nc1cc(OCc2ccc(Cl)cc2)c2nn[nH]c2n1 [Example 11, 7-(4-Chlorobenzyloxy)-3H-[1,2,3]triazolo[4,5-b]pyridin-5-amine] | – | 1 to 100
12 | Nc1cc(OCc2ccccc2Cl)c2nn[nH]c2n1 [Example 12, 7-(2-Chlorobenzyloxy)-3H-[1,2,3]triazolo[4,5-b]pyridin-5-amine] | – | 1 to 100
13 | Nc1cc(OCc2cccc(OC(F)(F)F)c2)c2nn[nH]c2n1 [Example 13, 7-(3-(Trifluoromethoxy)benzyloxy)-3H-[1,2,3]triazolo[4,5-b]pyridin-5-amine] | 1 to 100 | –
14 | Nc1cc(OCc2cccc(Oc3ccccc3)c2)c2nn[nH]c2n1 [Example 16, 7-(3-Phenoxybenzyloxy)-3H-[1,2,3]triazolo[4,5-b]pyridin-5-amine] | 101 to 999 | –
15 | Nc1cc(OCc2ccc(OC(F)F)cc2)c2nn[nH]c2n1 [Example 17, 7-(4-(Difluoromethoxy)benzyloxy)-3H-[1,2,3]triazolo[4,5-b]pyridin-5-amine] | 101 to 999 | –
16 | Nc1cc(OCc2ccccc2OCc2ccccc2)c2nn[nH]c2n1 [Example 20, 7-(2-(Benzyloxy)benzyloxy)-3H-[1,2,3]triazolo[4,5-b]pyridin-5-amine] | 1 to 100 | –
17 | Nc1cc(OCc2ccccc2OC(F)(F)F)c2nn[nH]c2n1 [Example 21, 7-(2-(Trifluoromethoxy)benzyloxy)-3H-[1,2,3]triazolo[4,5-b]pyridin-5-amine] | 1 to 100 | –
18 | COC(=O)c1cccc(COc2cc(N)nc3[nH]nnc23)c1 [Example 22, Methyl 3-((5-amino-3H-[1,2,3]triazolo[4,5-b]pyridin-7-yloxy)methyl)benzoate] | 1 to 100 | –

Row | SMILES | IC50 [1] [nM] | IC50 [nM]
19 | COC(=O)c1cccc(COc2cc(N)nc3[nH]nnc23)c1Cl [Example 24, Methyl 3-((5-amino-3H-[1,2,3]triazolo[4,5-b]pyridin-7-yloxy)methyl)-2-chlorobenzoate] | 1 to 100 | –
20 | Nc1cc(OCc2cccc(C(=O)N3CCOCC3)c2)c2nn[nH]c2n1 [Example 25, (3-((5-Amino-3H-[1,2,3]triazolo[4,5-b]pyridin-7-yloxy)methyl)phenyl)(morpholino)methanone] | 101 to 999 | –
21 | COc1c(COc2cc(N)nc3[nH]nnc23)cccc1C(F)(F)F [Example 26] | 1 to 100 | –
22 | Nc1cc(OCc2cc(OC(F)(F)F)ccc2F)c2nn[nH]c2n1 [Example 27, 7-(2-Fluoro-5-(trifluoromethoxy)benzyloxy)-3H-[1,2,3]triazolo[4,5-b]pyridin-5-amine] | 1 to 100 | –
23 | Nc1cc(OCc2cc(C(F)(F)F)ccc2Cl)c2nn[nH]c2n1 [Example 28, 7-(2-Chloro-5-(trifluoromethyl)benzyloxy)-3H-[1,2,3]triazolo[4,5-b]pyridin-5-amine] | 1 to 100 | –
24 | Nc1cc(OCc2cc(C(F)(F)F)cc(C(F)(F)F)c2)c2nn[nH]c2n1 [Example 29, 7-(3,5-Bis(trifluoromethyl)benzyloxy)-3H-[1,2,3]triazolo[4,5-b]pyridin-5-amine] | 1 to 100 | –
25 | COc1ccc(C(F)(F)F)cc1COc1cc(N)nc2[nH]nnc12 [Example 30, 7-(2-Methoxy-5-(trifluoromethyl)benzyloxy)-3H-[1,2,3]triazolo[4,5-b]pyridin-5-amine] | 1 to 100 | –
26 | Nc1cc(OCc2c(Cl)cccc2OC(F)(F)F)c2nn[nH]c2n1 [Example 31, 7-(2-Chloro-6-(trifluoromethoxy)benzyloxy)-3H-[1,2,3]triazolo[4,5-b]pyridin-5-amine] | 1 to 100 | –
27 | Nc1cc(OCc2cc(OC(F)F)ccc2F)c2nn[nH]c2n1 [Example 32, 7-(5-(Difluoromethoxy)-2-fluorobenzyloxy)-3H-[1,2,3]triazolo[4,5-b]pyridin-5-amine] | 1 to 100 | –
28 | NC(=O)c1cccc(COc2cc(N)nc3[nH]nnc23)c1Cl [Example 33, 3-((5-Amino-3H-[1,2,3]triazolo[4,5-b]pyridin-7-yloxy)methyl)-2-chlorobenzamide] | 101 to 999 | –
29 | COc1ccc(OC(F)(F)F)cc1COc1cc(N)nc2[nH]nnc12 [Example 35, 7-(2-Methoxy-5-(trifluoromethoxy)benzyloxy)-3H-[1,2,3]triazolo[4,5-b]pyridin-5-amine] | 1 to 100 | –
30 | Nc1cc(OCc2ccccc2OCC(=O)NCC2CC2)c2nn[nH]c2n1 [Example 37, 2-(2-((5-Amino-3H-[1,2,3]triazolo[4,5-b]pyridin-7-yloxy)methyl)phenoxy)-N-(cyclopropylmethyl)acetamide] | 101 to 999 | –
31 | Nc1cc(OCc2ccccc2Oc2ccccc2)c2nn[nH]c2n1 [Example 38, 7-(2-Phenoxybenzyloxy)-3H-[1,2,3]triazolo[4,5-b]pyridin-5-amine] | 1 to 100 | –
32 | COC(=O)c1ccc(F)c(COc2cc(N)nc3[nH]nnc23)c1 [Example 41, Methyl 3-((5-amino-3H-[1,2,3]triazolo[4,5-b]pyridin-7-yloxy)methyl)-4-fluorobenzoate] | 1 to 100 | –
33 | CS(=O)(=O)c1cc(Cl)cc(COc2cc(N)nc3[nH]nnc23)c1 [Example 44, 7-(3-Chloro-5-(methylsulfonyl)benzyloxy)-3H-[1,2,3]triazolo[4,5-b]pyridin-5-amine] | 101 to 999 | –
34 | Nc1cc(OCc2cccc(-n3cnc(C(F)F)n3)c2)c2nn[nH]c2n1 [Example 45, 7-(3-(3-(Difluoromethyl)-1H-1,2,4-triazol-1-yl)benzyloxy)-3H-[1,2,3]triazolo[4,5-b]pyridin-5-amine] | 1 to 100 | –
35 | CN(C)S(=O)(=O)c1ccccc1-c1ccc(COc2cc(N)nc3[nH]nnc23)c(Cl)c1 [Example 46, 4′-((5-Amino-3H-[1,2,3]triazolo[4,5-b]pyridin-7-yloxy)methyl)-3′-chloro-N,N-dimethylbiphenyl-2-sulfonamide] | 1 to 100 | –
36 | Nc1cc(OCc2cc(C(=O)NCc3ccccc3)ccc2F)c2nn[nH]c2n1 [Example 47, 3-((5-Amino-3H-[1,2,3]triazolo[4,5-b]pyridin-7-yloxy)methyl)-N-benzyl-4-fluorobenzamide] | 1 to 100 | –
